Test results: article PMC8091115, “Redundancy in Aromatic O-Demethylation and Ring-Opening Reactions in Novosphingobium aromaticivorans and Their Impact in the Metabolism of Plant-Derived Phenolics” (Applied and Environmental Microbiology, 2021)

Key:
LigM = target: T1, LigM (Novosphingobium aromaticivorans, UniProt Q2G4C6); test: HPLC-MS substrate depletion and product formation; format: biochemical; conditions: tetrahydrofolate as methyl acceptor, anaerobic, 30 C, phosphate buffer
T1 construct: gene Saro_2861; full length, N-terminal His8-TEV tag cleaved, from E. coli B834
T1 sequence (Q2G4C6 entry or part of it): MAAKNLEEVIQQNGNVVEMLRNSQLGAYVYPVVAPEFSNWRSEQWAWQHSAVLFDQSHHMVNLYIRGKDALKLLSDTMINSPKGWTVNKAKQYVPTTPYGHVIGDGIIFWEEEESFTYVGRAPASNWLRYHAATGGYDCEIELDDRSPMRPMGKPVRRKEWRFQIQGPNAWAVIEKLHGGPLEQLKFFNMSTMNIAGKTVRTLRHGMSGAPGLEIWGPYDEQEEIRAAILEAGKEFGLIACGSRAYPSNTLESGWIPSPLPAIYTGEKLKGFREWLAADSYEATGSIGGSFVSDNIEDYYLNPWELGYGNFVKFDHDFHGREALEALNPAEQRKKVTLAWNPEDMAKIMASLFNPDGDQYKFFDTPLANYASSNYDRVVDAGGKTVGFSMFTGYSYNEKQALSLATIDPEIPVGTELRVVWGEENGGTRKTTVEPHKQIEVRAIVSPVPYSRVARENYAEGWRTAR

DesA = target: T2, DesA (Novosphingobium aromaticivorans, UniProt Q2G5N3); test: HPLC-MS substrate depletion and product formation; format: biochemical; conditions: tetrahydrofolate as methyl acceptor, anaerobic, 30 C, phosphate buffer
T2 construct: gene Saro_2404; full length, N-terminal His8-TEV tag cleaved, from E. coli B834; b91 prints Saro_2402 (probable misprint, Saro_2404 everywhere else)
T2 sequence (Q2G5N3 entry or part of it): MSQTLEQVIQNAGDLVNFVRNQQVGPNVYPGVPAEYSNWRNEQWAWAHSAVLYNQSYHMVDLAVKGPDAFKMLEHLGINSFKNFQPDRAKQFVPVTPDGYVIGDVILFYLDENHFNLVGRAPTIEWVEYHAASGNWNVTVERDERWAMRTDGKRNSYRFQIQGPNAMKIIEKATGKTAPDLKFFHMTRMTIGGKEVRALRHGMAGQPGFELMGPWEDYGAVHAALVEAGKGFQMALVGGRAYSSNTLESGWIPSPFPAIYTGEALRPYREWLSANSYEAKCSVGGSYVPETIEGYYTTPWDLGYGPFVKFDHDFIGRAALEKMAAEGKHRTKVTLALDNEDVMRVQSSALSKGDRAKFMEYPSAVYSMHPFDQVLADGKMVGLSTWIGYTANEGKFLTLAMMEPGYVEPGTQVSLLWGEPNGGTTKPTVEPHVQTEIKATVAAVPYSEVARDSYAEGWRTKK

SMILES	HPLC-MS substrate depletion and product formation (LigM)	HPLC-MS substrate depletion and product formation (DesA)
COc1cc(C(=O)O)cc(O)c1O [3-MGA]	LigM protein of N. aromaticivorans was able to convert 3-MGA into GA	
COc1cc(C(=O)O)ccc1O [vanillic acid]	able to convert 3-MGA into GA and vanillic acid into PCA at comparable rates	demethylated both syringic acid and, somewhat more slowly, vanillic acid
